Reference: patent publication US7786081B2, “Peptide composition” (Pepsyn Ltd., priority 1993, dated 2010)

How the values were obtained:
[1] = known agent, stated drawback; cited from earlier work
[2] = system: Human keratinocytes (HatKat); assay: Growth of keratinocytes (cell count, Coulter counter); type: cell-based
Procedure: Human keratinocytes (HatKat) were grown in keratinocyte growth medium (TCS Cellworks Ltd.) until 20% confluence. Then, in the same medium, the keratinocytes were grown for three days with 0.5% foetal calf serum (FCS), at which point the cells were counted in a Coulter® counter. The cell numbers obtained are set out in Table 3 below.

Molecule | erythema at the site of application [1] | increase in the growth of keratinocytes ([2]; 10 ng/ml EGF vs medium with 0.5% FCS) | Number of cells ([2]; Medium with 0.5% FCS + 10 ng/ml EGF, three days, medium alone 23,777)
CC1=C(/C=C/C(C)=C/C=C/C(C)=C/C(=O)O)C(C)(C)CCC1 [all-trans retinoic acid] | produces marked erythema |  | 
EGF: epidermal growth factor, comparator in the keratinocyte growth test (NSDSECPLSHDGYCLHDGVCMYIEALDKYACNCVVGYIGERCQYRDLKWWELR; UniProt P01133 971-1023, looked up) |  | relatively modest increase | 29,356
